Experimental data published in patent US7052859B2, “MUCIN 4 expression as a marker for pancreatic cancer” (The Board of Regents of the University of Nebraska, priority 2000, dated 2006).
Ends that are not written are not given here.

B1: TGF-β2: growth factor from R&D systems; produced and secreted by pancreatic cancer cell lines (protein, UniProt P61812 303-414, looked up)
Transforming growth factor …: ALDAAYCFRNVQDNCCLRPLYIDFKRDLGWKWIHEPKGYNANFCAGACPYLWSSDTQHSRVLSLYNTINPEASASPCCVSQDLEPLTILYYIGKTPKIEQLSNMIVKSCKCS

Key:
MUC4 peptides = assay: Immunogenicity of KLH-conjugated MUC4 peptides in rabbits (serum antibody titre); type: in vivo, rabbit; settings: ten weeks after immunization with KLH-conjugated peptide
Method: The present invention also provides antibodies capable of immunospecifically binding to MUC4. Polyclonal antibodies directed toward human MUC4 protein may be prepared according to standard methods. In a preferred embodiment, monoclonal antibodies are prepared, which react immunospecifically with the various epitopes of the MUC4 protein. Monoclonal antibodies have been prepared according to general methods of Kohler and Milstein, following standard protocols.

[1] = tested on: MUC4 mRNA expression in PBMC; assay: MUC4 mRNA expression (RT-PCR) in PBMC from healthy volunteers after incubation with cytokines, growth factors or mitogens; type: cell-based, human; settings: incubated 24 and 48 hours, serum free, retinoic acid 100 nM, 1 μM, TGF-β2 10, 20 and 200 pg/ml
Method: Freshly prepared PBMC (10×10^6 cells) from healthy volunteers were stimulated with PHA (10 μg/ml) and LPS (20 μg/ml, all from Sigma) for 12 and 24 hours. To study the effect of different cytokines and growth factors on the MUC4 mRNA expression, 10 million PBMC were incubated with TGF-β1 (10; 20 and 200 pg/ml), TGF-β2 (10; 20 and 200 pg/ml) (all from R&D systems, Minneapolis, Minn.), retinoic acid (RA) (100 nM; 1 μM) (Sigma), GM-CSF (100 U/ml) (Immunex Corp. Seattle, Wash.), IL-1β (10 ng/ml), IL-6 (10 ng/ml), IL-9 (50 ng/ml), IFNγ (10 and 20 ng/ml), TNFα (10 and 50 ng/ml) or with IFNγ (10 and 20 ng/ml) in combination with TNFα (10 and 50 ng/ml) (all from PeproTech Inc., Rocky Hill, N.J.) for 24 and 48 hours under serum free conditions.
The single step RNA isolation method was used for RNA preparation as previously described (28,29). In brief, cells were homogenized in a denaturing solution containing 4 M guanidine thiocyanate. The homogenate was mixed sequentially with 2 M sodium acetate (pH 4), phenol and chloroform/isoamyl alcohol. […] The RNA pellet was then resuspended in diethyl pyrocarbonate (DEPC)-treated water, and the final RNA concentration was determined spectrophotometrically by measuring the absorbance at 260 nm and 280 nm (DU 640B, Beckman Coulter, Fullstone Calif.). […]

[2] = tested on: MUC4 expression in pancreatic cancer cells; settings: previous work (31); cited from earlier work

Row | Molecule | antibody titre of rabbit sera reacting specifically with the peptide (MUC4 peptides) | induction of MUC4 mRNA expression in PBMC [1] | MUC4 expression after treatment [2]
1 | ATYRPPQPAWMFGD (also: KLH conjugate; listed as Homo sapiens) [MUC4 α, MUC4 peptide synthesized and conjugated to the KLH protein as an immunogen] | 47,338 units | – | –
2 | GARFSYFLNSAEALP (also: KLH conjugate; listed as Homo sapiens) [MUC4 β, MUC4 peptide synthesized and conjugated to the KLH protein as an immunogen] | 31,108 units | – | –
3 | B1 | – | neither incubation with retinoic acid and TGF-β2 nor the activation of T-cells and B-cells with PHA and LPS or incubation with various other cytokines induced MUC4 mRNA expression | resulted in MUC4 expression
